Converted amounts (≈) assume the structure as drawn.
What was measured:
[1] = system: SKOV-3 (human ovarian); experiment: In vitro antitumor effect against human tumor cell lines, SRB assay; assay type: cell-based; conditions: SK-OV-3 cells, 48 hours with drug
Experimental: (§1) Experimental 1 : In vitro antitumor effect against human tumor cell lines.
(§2) A. Tumor cell lines : A549 (human non-small lung cell)
(§3) • SKOV-3 (human ovarian) • HCT-15 (human colon) • XF-498 (human CNS) • SKMEL-2 (human melanoma)
(§4) • a. Human solid tumor cell lines, A549(non-small lung cell), SKMEL-2(melanoma), HCT-15(colon), SKOV-3(ovarian) and XF-498(CNS) were cultured in 5% CO2 incubators using the RPMI 1640 media containing 10% FBS at 37°C, while with transfer-culturing successively once or twice per week. Cell cultures were dissolved in a solution of 0.25% trysin and 3 mmol CDTA PBS(-) to separate the cells sticked on the culture media. • b. 5× 10^3∼2× 10^4 cells were added into each well of 96-well plate and cultured in 5% CO2 incubator at 37°C for 24 hours. • c. Each sample drug was dissolved in a little DMSO and diluted with the used medium to a prescribed concentration for experiment, while the final concentration of DMSO was adjusted below 0.5%. • d. Medium of each well cultured for 24 hours as above b. was removed by aspiration. Each 200µl of drug samples prepared in c. was added into each well and the wells were cultured for 48 hours. Tz (time zero) plates were collected at the point of time drugs were added. • e. According to the SRB assay method, cell fixing with TCA, staining with 0.4% SRB solution, washing with 1% acetic acid and elution of dye with 10mmol Tris solution were carried out on Tz plates and culture-ended plates, and then, OD values were measured at 520 nm.
(§5) • a. Time zero(Tz) value was determined with measuring the SRB protein value at the point of time drugs were added. • b. Control value (C) was determined with the OD value of an well untreated with drug. • c. Drug-treated test value (T) was determined with the OD value of drug-treated well. • d. Effects of drugs were estimated with growth stimulation, net growth inhibition and net killing calculated from Tz, C and T values. • e. If T ≥ Tz, cellular response function was calculated by 100x(T-Tz)/(C-Tz), and, if T 〈 Tz, by 100× (T-Tz)/Tz.

[2] = system: SKMEL-2 (human melanoma); experiment: as above; assay type: cell-based; conditions: SK-MEL-2 cells, 48 hours with drug
Experimental: as §1, §2, §3, §4, §5

[3] = system: A549 (human non-small lung cell); experiment: as above; assay type: cell-based; conditions: A 549 cells, 48 hours with drug
Experimental: as §1, §2, §3, §4, §5

[4] = system: HCT-15 (human colon); experiment: as above; assay type: cell-based; conditions: HCT 15 cells, 48 hours with drug
Experimental: as §1, §2, §3, §4, §5

[5] = system: XF-498 (human CNS); experiment: as above; assay type: cell-based; conditions: XF-498 cells, 48 hours with drug
Experimental: as §1, §2, §3, §4, §5

[6] = target: Topoisomerase II; experiment: Inhibition of Topoisomerase II activity (DNA relaxation assay / DNA cleavage assay with supercoiled pBR322 DNA); assay type: biochemical; conditions: Topo II, 30 minutes at 37°C, table does not say which of the two assays
Experimental: Experimental 3 : Inhibition effects against the Topoisomerase II activities
The present compounds were tested for inhibition of Topoisomerase II activity by means of the relaxation assay using supercoiled pBR322 DNA as the substrate. Topo II and a sample inhibitor were added to a reaction system (50mmol Tris-HCl, pH 7.5, 50mmol KCl, 20mmol MgCl2, 0.5mmol EDTA, 2mmol ATP, 60µg/mℓ BSA) containing supercoiled pBR322 DNA and reacted for 30 minutes at 37°C. Then, a quarter by volume of Stop buffer (5% SDS, 50mmol EDTA, 30% glycerol, 0.1mg/mℓ xylene cyanol, 0.1mg/mℓ BPB) was added to the reaction system to stop the reaction. The resulting product went through electrophoresis on 0.7% agarose gel and was stained by ethidium bromide solution. Mobility of DNA was measured under ultraviolet rays.
Topo II and a sample inhibitor were added to cleavage buffer (30mmol Tris-HCl, pH 7.5, 60mmol KCl, 10mmol MgCl2, 15mmol β -mercaptoethanol, 30µg/mℓ BSA) containing supercoiled pBR322 DNA and allowed to react for 30 minutes at 37°C. Then, […] by 1% was added to the reaction system to stop the reaction. Then, proteinase K was added thereto up to the concentration of 50 µg/mℓ and allowed to react for 30 minutes at 56°C. The reaction product was treated with phenol/chloroform to purify DNA, and the obtained DNA was loaded on agarose gel electrophoresis, transferred to nitrocellulose membrane and hybridized with probe DNA labelled with radioisotope. Then, the nitrocellulose membrane was covered with an X-ray film and exposed to be sensitized and developed, whereby the degree of cleavage of DNA was measured.

[7] = system: P388 (mouse lymphoid neoplasma cell); experiment: In vitro antitumor effect against animal leukemia cells, dye exclusion assay (trypan blue); assay type: cell-based; conditions: 48 hours, dye exclusion test using trypan blue, read-out: IC50 (concentration showing 50 % cell growth inhibition)
From the text: Experimental 2 : In vitro antitumor effects against animal leukemia cells.
• Tumor cell lines : P388 (mouse lymphoid neoplasma cell)
B. Method : Dye Exclusion Assay.

[8] = system: ICR mice; experiment: Acute toxicity test (LD50), Litchfield-Wilcoxon method; assay type: in vivo; conditions: i.p., ICR mice (male), observed during 14 days
[9] = as above; assay type: in vivo; conditions: mouse, in vivo, ICR mice (male), observed during 14 days

| Compound | ED50 [1] | ED50 [2] | ED50 [3] | ED50 [4] | ED50 [5] | IC50 [6] | IC50 [7] | also measured |
| --- | --- | --- | --- | --- | --- | --- | --- | --- |
| N.N.[Cl][Pt][Cl] [Cisplatin, reference compound] | 0.71 µ g/ml | 0.71 µ g/ml | 0.81 µ g/ml | 3.03 µ g/ml | 0.77 µ g/ml |  |  |  |
| Nc1cc(COC(=O)Nc2ccccc2)cc(Nc2c3ccccc3nc3ccccc23)c1 [Example 1, [3-(acridin-9-yl)amino-5-amino]benzyl N-phenylcarbamate] | 1.15 µ g/ml | 0.49 µ g/ml | 0.96 µ g/ml | 0.57 µ g/ml | 0.44 µ g/ml | 1 µg/mL (≈ 2.3 µM) |  |  |
| COc1cccc(NC(=O)OCc2cc(N)cc(Nc3c4ccccc4nc4ccccc34)c2)c1 [Example 2, [3-(acridin-9-yl)amino-5-amino]benzyl N-(3-methoxyphenyl)carbamate] | 0.68 µ g/ml | 1.08 µ g/ml | 1.12 µ g/ml | 0.97 µ g/ml | 0.71 µ g/ml | 3 µg/mL (≈ 6.46 µM) |  |  |
| COc1cc(NC(=O)OCc2cc(N)cc(Nc3c4ccccc4nc4ccccc34)c2)cc(OC)c1 [Example 3, [3-(acridin-9-yl)amino-5-amino]benzyl N-(3,5-dimethoxyphenyl)carbamate] |  |  |  |  |  | 3 µg/mL (≈ 6.07 µM) | 1.1 µg/mL (≈ 2.22 µM) |  |
| COc1cc(NC(=O)OCc2cc(N)cc(Nc3c4ccccc4nc4ccccc34)c2)cc(OC)c1OC [Example 4, [3-(acridin-9-yl)amino-5-amino]benzyl N-(3,4,5-trimethoxyphenyl)carbamate] | 0.19 µ g/ml | 0.20 µ g/ml | 0.19 µ g/ml | 0.24 µ g/ml | 0.23 µ g/ml | 5 µg/mL (≈ 9.53 µM) |  |  |
| Cc1cc(C)cc(NC(=O)OCc2cc(N)cc(Nc3c4ccccc4nc4ccccc34)c2)c1 [Example 6, [3-(acridin-9-yl)amino-5-amino]benzyl N-(3,5-dimethylphenyl)carbamate] | 0.36 µ g/ml | 0.40 µ g/ml | 0.72 µ g/ml | 0.33 µ g/ml | 0.37 µ g/ml | 3 µg/mL (≈ 6.49 µM) |  |  |
| Nc1cc(COC(=O)Nc2cc(F)cc(F)c2)cc(Nc2c3ccccc3nc3ccccc23)c1 [Example 12, [3-(acridin-9-yl)amino-5-amino]benzyl N-(3,5-difluorophenyl)carbamate] |  |  |  |  |  | 0.5 µg/mL (≈ 1.06 µM) |  | LD50 [8]: 150 mg/kg |
| Nc1cc(COC(=O)Nc2cccc(Cl)c2)cc(Nc2c3ccccc3nc3ccccc23)c1 [Example 14, [3-(acridin-9-yl)amino-5-amino]benzyl N-(3-chlorophenyl)carbamate] |  |  |  |  |  | 1 µg/mL (≈ 2.13 µM) | 1 µg/mL (≈ 2.13 µM) |  |
| COc1cc(NC(=S)OCc2cc(N)cc(Nc3c4ccccc4nc4ccccc34)c2)cc(OC)c1 [Example 18, [3-(acridin-9-yl)amino-5-amino]benzyl N-(3,5-dimethoxyphenyl)thiocarbamate] |  |  |  |  |  | 3 µg/mL (≈ 5.88 µM) | 0.7 µg/mL (≈ 1.37 µM) |  |
| COc1cc(NC(=S)OCc2cc(N)cc(Nc3c4ccccc4nc4ccccc34)c2)cc(OC)c1OC [Example 19, [3-(acridin-9-yl)amino-5-amino]benzyl N-(3,4,5-trimethoxyphenyl)thiocarbamate] |  |  |  |  |  | 5 µg/mL (≈ 9.25 µM) |  |  |
| COc1cccc(NC(=O)OCc2cccc(Nc3c4ccccc4nc4ccccc34)c2)c1 [Example 20, 3-(acridin-9-yl)aminobenzyl N-(3-methoxyphenyl)carbamate] |  |  |  |  |  | 3 µg/mL (≈ 6.67 µM) |  |  |
| COc1cc(NC(=O)OCc2cccc(Nc3c4ccccc4nc4ccccc34)c2)cc(OC)c1 [Example 21, 3-(acridin-9-yl)aminobenzyl N-(3,5-dimethoxyphenyl)carbamate] |  |  |  |  |  | 3 µg/mL (≈ 6.26 µM) |  |  |
| COc1cc(NC(=O)OCc2cccc(Nc3c4ccccc4nc4ccccc34)c2)cc(OC)c1OC [Example 22, 3-(acridin-9-yl)aminobenzyl N-(3,4,5-trimethoxyphenyl)carbamate] |  |  |  |  |  | 5 µg/mL (≈ 9.81 µM) |  |  |
| CC=Nc1cc(CO)cc(Nc2c3ccccc3nc3ccccc23)c1 [Example 35, 3-(acridin-9-yl)amino-5-(ethylideneamino)phenylmethanol] |  |  |  |  |  | 5 µg/mL (≈ 14.6 µM) |  |  |
| CCC=Nc1cc(CO)cc(Nc2c3ccccc3nc3ccccc23)c1 [Example 36, 3-(acridin-9-yl)amino-5-(propylideneamino)phenylmethanol] |  |  |  |  |  | 3 µg/mL (≈ 8.44 µM) |  |  |
| CCCC=Nc1cc(CO)cc(Nc2c3ccccc3nc3ccccc23)c1 [Example 37, 3-(acridin-9-yl)amino-5-(butylideneamino)phenylmethanol] | 0.93 µ g/ml | 0.89 µ g/ml | 0.90 µ g/ml | 0.35 µ g/ml | 0.36 µ g/ml | 5 µg/mL (≈ 13.5 µM) |  |  |
| NCC(=O)Nc1cc(CO)cc(Nc2c3ccccc3nc3ccccc23)c1 [Example 44, N-[3-(acridin-9-yl)amino-5-(hydroxymethyl)phenyl] aminoethaneamide] |  |  |  |  |  | 3 µg/mL (≈ 8.06 µM) | 0.1 µg/mL (≈ 0.269 µM) |  |
| C[C@H](N)C(=O)Nc1cc(CO)cc(Nc2c3ccccc3nc3ccccc23)c1 [Example 45, N-[3-(acridin-9-yl)amino-5-(hydroxymethyl)phenyl] (2S)-2-aminopropaneamide] | 0.21 µ g/ml | 0.25 µ g/ml | 0.01 µ g/ml | 0.86 µ g/ml | 0.88 µ g/ml | 0.5 µg/mL (≈ 1.29 µM) | 0.05 µg/mL (≈ 0.129 µM) | LD50 at 14 days ([9]; ip): 730 mg/kg; LD50 at 14 days ([9]; iv): 133 mg/kg |
| N[C@@H](Cc1ccccc1)C(=O)Nc1cc(CO)cc(Nc2c3ccccc3nc3ccccc23)c1 [Example 46, N-[3-(acridin-9-yl)amino-5-(hydroxymethyl)phenyl] (2S)-2-amino-3-phenylpropaneamide] |  |  |  |  |  | 3 µg/mL (≈ 6.49 µM) | 0.1 µg/mL (≈ 0.216 µM) |  |

Reference: patent EP1380574B1, “9-aminoacridine derivates and process for the preparation thereof” (Samjin Pharmaceutical Co., Ltd., priority 1998, dated 2000)
